Square brackets hold non-standard residues; d marks the D form. Ends that are not written are not given here. Gla = N[C@@H](CC(C(=O)O)C(=O)O)C(=O)O
Columns and labels:
[1] = Release kinetics of modular peptides from HA-coated film; details: after 5 days, PBS, 37° C.
Description: To quantify release kinetics of 5(6) FAM-conjugated modular peptides from HA-coated film, the films were first incubated in solutions containing 250 μM (˜500 μg) of each peptide (eBGu1, eBGu3, eBGa1, or eBGa3) to allow for binding (as described above), then incubated in 500 μl of PBS buffer at 37° C. with constant agitation for 5 days (eBGu1 and eBGu3 peptides) or 10 weeks (eBGa1 and eBGa3 peptides), respectively. Whole buffer solutions were changed at indicated time points and the amount of peptide released from the HA-coated film was determined via fluorescence analysis and comparison with standards containing known amounts of 5(6)-FAM. The fluorescent images of fluorescently-labeled peptides bound to HA-coated films were obtained using an Olympus IX51 fluorescence microscope (Olympus, Center Valley, Pa.).

[2] = Binding of 5(6)-FAM-conjugated modular peptides to HA-coated PLG films; details: 500 μg (1 mg/ml) 5(6)-FAM-conjugated peptide in PBS, 4 hr, 37° C., constant agitation
Description: Poly (lactide-coglycolide) (PLG) films were prepared via a solvent casting process in which PLG (85:15) pellets were dissolved in chloroform (50 mg/ml), added to a PTFE dish, and dried for 2 days. The films were further dried at 50-55° C. for 4 hr to remove residual solvent and samples were cooled to room temperature. Square films (1 cm^2) were manually cut out of the resulting PLG film sheets. A “bone-like” HA-based material layer was grown on the PLG films using a direct deposition technique by biomimetic mineralization in modified simulated body fluid (mSBF).
To measure the binding efficiency of modular peptides to the HA-coated PLG films and to gain preliminary insight into the properties that influence modular peptide immobilization, 1 cm^2 HA-coated PLG films was first exposed to PBS solutions containing 500 μg (1 mg/ml) of 5(6) FAM-conjugated eBMP-2, eBGu1, eBGu3, eBGa1, or eBGa3 modular peptide solution (See Table 1 for definitions of these abbreviations). The films were incubated in peptide solutions with constant agitation for 4 hr at 37° C., and the amount of free peptide remaining was determined by measuring the fluorescence emission of the solution (excitation: 494 nm; emission 519 nm) using a Synergy HT Multi-Detection Microplate Reader (BioTek, Winooski, Vt.), and comparing this emission to standard samples with known concentrations of 5(6)-FAM. To further characterize surface immobilization of the peptide with the highest binding efficiency—the eBGa3 peptide-1 cm^2 HA-coated films were incubated in various concentrations (50-750 nM) of 5(6)-FAM-conjugated eBGa3 peptide for 4 hr with constant agitation at 37° C. The amount of peptide bound to HA-coated film was again determined by fluorescence analysis, as described above.

[3] = Binding of rhodamine-labeled peptide to cortical bone; parameters: species or system sheep
Description: The native bone used were harvested from sheep tibia and bovine sternum. Cortical (compact) bone slices were collected from sheep tibia with periosteum removed, and trabecular (cancellous, spongy) bone cores were drilled out from bovine sternum under sterile conditions.
The peptide binding to native bones was tested in three different experiments. In the first experiment, the cortical bone slices were incubated in modular peptide solution (0.5 mL, PBS) with concentrations of 50, 100, 200 and 300 μg/mL. The incubation was continued in a static condition for a period of 0.5, 1, 2 and 3 hours. For another experiment, the trabecular bone cores were placed in the chamber of bone bioreactor where the peptide solution prepared in DMEM (100 μg/mL, 6.5 mL) was continuously circulated through the chamber for a time period of 2, 4, 6, 8 and 10 hours. In the last experiment, mBMP was bound in a spatially controlled manner by dip-coating, spotting or writing with mBMP solution on native bone tissues. Following each experiment, the bones were rinsed with PBS to remove unbound peptide and their fluorescence images were captured using a Typhoon fluorescence scanner (GE healthcare) or a Nikon Eclipse Ti inverted microscope. To quantify the fluorescence intensity, the images were converted into 8-bit using ImageJ to present the intensity level of each pixel in the range of 0 to 255. The mean pixel intensity of a selected region of interest was considered to be proportional to the amount of peptide bound.
To examine mBMP binding to cortical bone without periosteum (ca. 4 mm×7 mm×1.5 mm) from the shaft of sheep tibia, the bone tissue was incubated in mBMP solution prepared in phosphate buffered saline (PBS). The binding of mBMP was concentration-dependent for each incubation time tested (FIGS. 12 and 13A). The quantity of mBMP binding was proportional to the solution concentration, which was clearly observed through all concentrations at 0.5 hour. However, this dependence was not apparent at higher concentrations at later time points. […] The insignificant dependence on the incubation time is likely attributed to the rapid binding of mBMP to native bone tissue.

[4] = Binding of VEGF peptides to HA particles / HA slab
Description: The binding behavior of the peptides (both modular peptide, VEGF-OCN (SEQ ID NO:18), and VEGF-mimic) were analyzed and compared as described above. The amount of bound VEGF-OCN on the HA particle increased with peptide concentration and reached saturation at 15 μM (FIG. 8A).

[5] = system: mouse yolk sac endothelial C166-GFP cells; assay: C166-GFP cell proliferation on peptide-treated HA slabs (CYQUANT); type: cell-based; details: 2-day culture on HA slab incubated in peptide solution
Description: Cells were again seeded at a density of 2×10^4 cells/cm^2 (4×10^4 cells per well) in 24-well plate. Prior to seeding, HA slabs (1 cm×1 cm) were incubated in peptide solution (PBS) for four hours at 37° C. and copiously rinsed with deionized water, and then placed in a well of the 24-well plate. After 1-day culture, cells were treated with 2 μM calcein AM solution, and imaged using Olympus IX-51 microscope.
Additionally, a cell number count of the C166-GFP cells as cultured in the presence of VEGF-OCN or VEGF mimic was determined For the cell count, cells were seeded at a density of 5×10^3 cells/cm^2 (1×10^4 cells per well) in a 24-well plate. After 2-day culture, cells were detached from the HA slab and cell number was assessed using CYQUANT assay.

## KIPKASSVPTELSAIATLYLAAAAEPRRAVAAL [eBGu1, modular BMP-2/OCN peptide with one Glu residue]
[1]
  peptide released from HA-coated films: 98.89±18.84%
[2]
  binding efficiency on the HA-coated PLG films: 10.3±4.7%

## KIPKASSVPTELSAISTLYLAAAAEPRREVAEL [eBGu3, modular BMP-2/OCN peptide with Glu in place of Gla at three positions]
[1]
  peptide released from HA-coated films: 93.33±17.24%
[3]; 50-300 μg/mL in PBS, 0.5-3 hours
  dependence of binding to cortical bone on concentration and incubation time: independent of incubation time and peptide concentration
[3]; each experimental condition tested
  amount of peptide bound to cortical bone: significantly less than that of mBMP
[2]
  binding efficiency on the HA-coated PLG films: 7.6±7.8%

## KIPKASSVPTELSAISTLYLAAAAγEPRRAVAAL (KIPKASSVPTELSAISTLYLAAAA[Gla]PRRAVAAL-NH2; N-terminus assumed; SMILES CC[C@H](C)[C@H](NC(=O)[C@H](C)NC(=O)[C@H](CO)NC(=O)[C@H](CC(C)C)NC(=O)[C@H](CCC(=O)O)NC(=O)[C@@H](NC(=O)[C@@H]1CCCN1C(=O)[C@@H](NC(=O)[C@H](CO)NC(=O)[C@H](CO)NC(=O)[C@H](C)NC(=O)[C@H](CCCCN)NC(=O)[C@@H]1CCCN1C(=O)[C@@H](NC(=O)[C@@H](N)CCCCN)[C@@H](C)CC)C(C)C)[C@@H](C)O)C(=O)N[C@@H](CO)C(=O)N[C@H](C(=O)N[C@@H](CC(C)C)C(=O)N[C@@H](Cc1ccc(O)cc1)C(=O)N[C@@H](CC(C)C)C(=O)N[C@@H](C)C(=O)N[C@@H](C)C(=O)N[C@@H](C)C(=O)N[C@@H](C)C(=O)N[C@@H](CC(C(=O)O)C(=O)O)C(=O)N1CCC[C@H]1C(=O)N[C@@H](CCCNC(=N)N)C(=O)N[C@@H](CCCNC(=N)N)C(=O)N[C@@H](C)C(=O)N[C@H](C(=O)N[C@@H](C)C(=O)N[C@@H](C)C(=O)N[C@@H](CC(C)C)C(N)=O)C(C)C)[C@@H](C)O) [eBGa1, modular BMP-2/OCN peptide with one Gla residue]
[2]
  binding efficiency on the HA-coated PLG films: 29.9±2%

## KLTWQELYQLKYKGI [VEGF-mimic, VEGF helical region mimic first synthesized by Pedon, et al, reference compound]
[4]; HA slab, qualitative comparison
  amount of peptide bound to HA slab: much less than that of VEGF-OCN

## KLTWQELYQLKYKGI-GGGAAAA-γEPRRγEVAγEL (KLTWQELYQLKYKGIGGGAAAA[Gla]PRR[Gla]VA[Gla]L) [VEGF-OCN]
[4]; HA particles
  peptide concentration at which bound amount on HA particle reached saturation: 15 µM
[5]
  effect of peptide-treated HA slab on cell number: promoted cell proliferation
